The source of these data is patent publication US20220257597A1, “Methods of Administering Elagolix” (AbbVie Inc., priority 2021, published 2022).

Data set [1] relates to CYP3A. The data set can be described thus: Substrate of / metabolism by CYP3A. It counts as in vitro ADME.
Data set [2] addresses T1, OATP1B1 transporter protein (Homo sapiens, UniProt Q9Y6L6, V174A).
T1 construct: Hepatic uptake of elagolix involves the OATP1B1 transporter protein; from tissue; host or cells: liver of patients (in vivo)
T1 sequence (Q9Y6L6 1-691 V174A): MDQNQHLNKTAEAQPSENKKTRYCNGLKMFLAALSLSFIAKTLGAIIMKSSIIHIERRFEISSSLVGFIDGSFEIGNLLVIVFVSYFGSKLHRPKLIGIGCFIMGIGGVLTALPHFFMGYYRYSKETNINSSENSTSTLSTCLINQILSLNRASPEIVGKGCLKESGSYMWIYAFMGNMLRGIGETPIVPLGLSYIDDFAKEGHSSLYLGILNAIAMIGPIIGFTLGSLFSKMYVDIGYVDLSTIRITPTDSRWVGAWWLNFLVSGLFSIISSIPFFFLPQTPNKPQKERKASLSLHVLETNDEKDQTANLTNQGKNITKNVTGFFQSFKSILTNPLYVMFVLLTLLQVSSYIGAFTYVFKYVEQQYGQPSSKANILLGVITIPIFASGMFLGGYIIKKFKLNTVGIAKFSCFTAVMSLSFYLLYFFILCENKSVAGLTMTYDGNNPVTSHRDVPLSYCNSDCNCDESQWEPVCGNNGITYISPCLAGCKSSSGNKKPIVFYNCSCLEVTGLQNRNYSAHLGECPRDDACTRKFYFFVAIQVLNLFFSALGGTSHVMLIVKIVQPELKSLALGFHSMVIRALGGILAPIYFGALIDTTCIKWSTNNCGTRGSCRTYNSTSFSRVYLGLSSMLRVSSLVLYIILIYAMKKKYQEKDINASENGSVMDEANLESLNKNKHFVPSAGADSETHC
The data set can be described thus: Pharmacogenomics: elagolix plasma concentrations by SLCO1B1 521 genotype. In kind it is in vivo. The note with it: women with two reduced function alleles. The source says:
Hepatic uptake of elagolix involves the OATP1B1 transporter protein. Higher plasma concentrations of elagolix have been observed in patients who have two reduced function alleles of the gene that encodes OATP1B1 (SLCO1B1 521T>C) (these patients are likely to have reduced hepatic uptake of elagolix; and thus, higher plasma elagolix concentrations). The frequency of this SLCO1B1 521 C/C genotype is generally less than 5% in most racial/ethnic groups. Women with this genotype are expected to have approximately 2-fold higher elagolix mean concentrations compared to women with normal transporter function (i.e., SLCO1B1 521T/T genotype). Adverse effects of elagolix have not been fully evaluated in subjects who have two reduced function alleles of the gene that encodes OATP1B1 (SLCO1B1 521T>C).

Consider `COc1cccc(-c2c(C)n(Cc3c(F)cccc3C(F)(F)F)c(=O)n(C[C@H](NCCCC(=O)O)c3ccccc3)c2=O)c1F` [elagolix, 4-((R)-2-[5-(2-fluoro-3-methoxy-phenyl)-3-(2-fluoro-6-trifluoromethyl-benzyl)-4-methyl-2,6-dioxo-3,6-dihydro-2H-pyrimidin-1-yl]-1-phenyl-ethylamino)-butyric acid], for which the “substrate of CYP3A” value in data set [1] is reported as “substrate”. For the same molecule, the “elagolix mean concentrations, SLCO1B1 521 C/C genotype compared to SLCO1B1 521T/T genotype” value in data set [2] was “approximately 2 fold”.
